From paper PMC5063506, “A Novel Class of Small Molecule Agonists with Preference for Human over Mouse TLR4 Activation” (PLoS ONE, 2016) come the findings set out here.

One assay addresses T1, human TLR4 (Homo sapiens, UniProt O00206+Q9Y6Y9).
T1 construct: expressed in transfected cells; host or cells: HEK293 with stably integrated pNiFty2-SEAP reporter
In words: Human TLR4 NFκB SEAP reporter gene assay in hTLR4-transfected HEK293 cells. The following applies: NFκB SEAP reporter, hTLR4-transfected HEK293 cells, 20 h; read-out: Human TLR4 pEC50 (converted). In kind it is cell-based. The procedure:
HEK293 cells stably transfected with pNiFty2-SEAP reporter plasmid were transiently transfected with either human or mouse TLR4 (pUNO expression vector), in combination with either human or mouse CD14/MD2 (pDUO expression vector). Transient transfectants were seeded in Dulbecco’s Modified Eagle Medium, FCS 10% (v/v), 2 mM l glutamine and non-essential amino acids. Cells were seeded in tissue culture treated clear flat bottom polystyrene 96 well plates (Costar, 3598) at 1e4 cells/well. Concentration-response curves were generated by addition of test compounds and incubation for 20 h at 37°C in an atmosphere of 5% CO2. LPS (E. coli 0111:B4, Ultra-pure, Invivogen) or PHAD (Avanti Polar Lipids) was used as a positive control. The SEAP released was quantified using p nitrophenyl phosphate as a substrate, and the absorbance at 405 nm was measured at 30 second intervals over several minutes using a microplate reader. Some data are recorded as the pEC50, the negative log of the EC50 value. Other data generated from these reporter cell lines were converted to AUC (area under the curve) values by interpolation of fitted cubic spline curve between OD value and log concentration levels. The calculation is performed using MESS package in statistical software R (www.r-project.org/).

The subject of assay [1] is guinea pig TLR4, MD2, and CD14. In words: Guinea-pig TLR4 reporter agonist assay (HEK293 SEAP, DDAO phosphate). In kind it is cell-based. The following applies: 10^-5 to 10^-10 M, 20 h, % of maximum 1 μM LPS signal. An excerpt:
Fragments of guinea pig TLR4 were identified by searching the Ensembl genome browser database (http://www.ensembl.org/index.html) using the BLAST algorithm and discontiguous mega blast of the NCBI trace archives (http://www.ncbi.nlm.nih.gov/blast/tracemb.shtml) using the DNA sequence of human TLR4 Isotype A as the search string. Guinea pig CD14 was assembled in silico from fragments identified in the NCBI trace archives using human CD14 as the search string (76% similar/72% identical). Fragments corresponding to guinea pig MD2 were identified by searching the Ensembl genome browser database and NCBI trace archives with human MD2 as the search string (72% similar/68% identical). Sequence information was used to design primers for PCR amplification of full length coding sequences from guinea pig spleen cDNA. Sequences for guinea pig MD2 and CD14 were as predicted in silico. gpTLR4 was cloned into the expression vector pUNO (Invivogen). gpMD2 and gpCD14 were cloned together into pDUO (Invivogen) for co-expression. gpMD2 was also cloned into pUNO for transient co-expression with gpTLR4. A stable mixed population expressing gpTLR4 /CD14/MD2 was made by transfecting the gpTLR4/pUNO and gpMD2 + gpCD14/pDUO constructs into a HEK293 cell-line containing a stably integrated pNiFty2-SEAP reporter plasmid (Invivogen) using Fugene-6 (Roche). […]
SEAP detection assay was performed as previous described by. […] Plates were read using the Envision plate reader excitation λex 620nm, emission λem 665nm. Data was analyzed as % maximum 1 μM Ultrapure (0111:B4) LPS activation signal (Invivogen).
Fig 5 Ugi compounds activate guinea pig TLR4/MD2-HEK transfectants. […] The plates were developed with the addition of DDAO phosphate as substrate and then read on a plate reader at 620 nm. Data were analyzed as % of the maximum 1 μM Ultrapure (0111:B4) LPS activation signal.

T1 sequence (O00206 24-839): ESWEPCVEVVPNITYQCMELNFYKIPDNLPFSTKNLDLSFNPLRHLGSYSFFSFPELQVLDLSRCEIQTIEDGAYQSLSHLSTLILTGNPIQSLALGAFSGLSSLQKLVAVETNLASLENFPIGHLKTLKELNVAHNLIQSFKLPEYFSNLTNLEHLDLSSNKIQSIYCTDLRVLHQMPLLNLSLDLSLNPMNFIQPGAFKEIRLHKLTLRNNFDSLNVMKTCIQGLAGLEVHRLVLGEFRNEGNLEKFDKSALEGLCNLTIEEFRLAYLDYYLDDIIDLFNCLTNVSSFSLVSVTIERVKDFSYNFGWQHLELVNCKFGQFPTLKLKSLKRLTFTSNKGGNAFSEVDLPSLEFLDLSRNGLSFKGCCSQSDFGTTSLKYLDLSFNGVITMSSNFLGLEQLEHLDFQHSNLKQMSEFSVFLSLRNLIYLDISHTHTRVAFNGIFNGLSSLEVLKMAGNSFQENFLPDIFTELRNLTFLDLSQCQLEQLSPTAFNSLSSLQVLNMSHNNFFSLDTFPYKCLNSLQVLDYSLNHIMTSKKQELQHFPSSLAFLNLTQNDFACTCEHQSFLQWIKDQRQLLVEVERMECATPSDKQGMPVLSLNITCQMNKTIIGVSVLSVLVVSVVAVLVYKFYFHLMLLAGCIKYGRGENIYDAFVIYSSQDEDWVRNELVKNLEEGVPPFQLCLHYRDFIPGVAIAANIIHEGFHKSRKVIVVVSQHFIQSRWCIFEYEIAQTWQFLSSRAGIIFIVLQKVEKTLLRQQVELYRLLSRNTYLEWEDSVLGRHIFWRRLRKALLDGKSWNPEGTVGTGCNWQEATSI
T1 sequence (Q9Y6Y9 19-160): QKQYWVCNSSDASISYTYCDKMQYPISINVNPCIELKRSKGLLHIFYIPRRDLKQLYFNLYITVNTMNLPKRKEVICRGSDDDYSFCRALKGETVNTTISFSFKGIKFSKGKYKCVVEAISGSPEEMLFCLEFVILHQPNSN

Regarding `Cc1cc(C)cc(N(C(=O)c2cc(-c3ccccc3)n(-c3ccccc3)n2)C(C(=O)NC2CCCC2)c2ccc(CC(=O)O)cc2)c1` (stereo not shown) [AZ618, 2-(4-(2-(cyclopentylamino)-1-(N-(3,5-dimethylphenyl)-1,5-diphenyl-1H-pyrazole-3-carboxamido)-2-oxoethyl)phenyl)acetic acid], the EC50 on human TLR4 was 0.02 µM.
In the case of `Cc1ccc(N(C(=O)c2cc(-c3ccccc3)n(-c3ccccc3)n2)C(C(=O)NC2CCCC2)c2ccc(CC(=O)O)cc2)cc1Cl` (stereo not shown) [AZ161], the EC50 on human TLR4 is 0.02 µM. Further, in assay [1], the “potency on gpTLR4/gpMD2/gpCD14 HEK293 transfectants” value is recorded as “potency comparable to LPS”.
For the molecule `CC(C)(C)c1ccc(N(C(=O)c2cc(-c3ccccc3)n(-c3ccccc3)n2)C(C(=O)NC2CCCC2)c2ccc(CC(=O)O)cc2)cc1` (stereo not shown) [AZ902], the EC50 at human TLR4 was 0.00631 µM. The “potency on gpTLR4/gpMD2/gpCD14 HEK293 transfectants” value in assay [1] was “less active but still positive”.
Take `O=C(O)Cc1ccc(C(C(=O)NC2CCCC2)N(C(=O)c2cc(-c3ccccc3)n(-c3ccccc3)n2)c2ccc3c(c2)CCC3)cc1` (stereo not shown) [AZ617]: the EC50 at human TLR4 is 0.00501 µM. The “potency on gpTLR4/gpMD2/gpCD14 HEK293 transfectants” value in assay [1] was “potency comparable to LPS”.
